Assay results as given in patent US20190195897A1, “GLYCOSYLATED METABOLITES” (UNIVERSITEIT LEIDEN, priority 2015, published 2019).

Legend:
COS7 cells = experiment: GlcChol in cultured COS7 cells incubated with inhibitors of GBA2 and GBA; format: cell-based; conditions: for increased cellular GlcChol level in cells with overexpressed GCS: COS7 cells with overexpressed GCS, 2 days with inhibitor
Description: FIG. 4A: GlcChol (nmol/g protein) in COS cells without overexpression of enzymes (control), overexpressed GBA2, GCS and both (GBA2+GCS). Cells were incubated for 2 days with indicated inhibitors of GBA2 (AMP-DNM) and GBA (CBE).
The GlcChol content of cultured COS7 cells and factors influencing this was determined. First the impact of overexpressed GBA2 and GCS was studied.
COS-7 cells were cultured in Iscove's modified Dulbecco's medium (Life Technologies, Carlsbad, Calif., USA) supplemented with 5% fetal bovine serum (FBS; Bodinco, Alkmaar, The Netherlands) and in the presence of penicillin/streptomycin Liffe Technologies, Carlsbad, Calif., USA under 5% CO2 at 37° C. […] After 72 h, the medium was removed, cells were washed trice with ice-cold PBS and harvested by scraping in 25 mM potassium-phosphate buffer, pH 6.5.
COS-7 cells overexpressing GBA2 and/or GCS were homogenized by sonication on ice. Prior to extraction, 2 pmol of ^13C-labelled GlcChol in methanol (used as an internal standard) was added to 180 μL of homogenate. Next, lipids were extracted according to the method of Bligh and Dyer by addition of methanol, chloroform and water (1:1:0.9, v/v/v) and the lower phase was taken to dryness under a stream of nitrogen. Isolated Is lipids were purified by water/butanol extraction (1:1, v/v) and 8-GlcChol was analyzed by LC-MS as described before.

RAW 267 cells = experiment: GlcChol in RAW 267 cells exposed to U18666A; format: cell-based; conditions: for increase of GlcChol in U18666A exposed cells: RAW 267 cells with U18666A, added agent present
Description: FIG. 5C: GlcChol (pmol/mg protein) in RAW 267 cells incubated with indicated concentration U18666A for 1 day in absence and presence of conduri.tol B-epoxide (CBE) inhibiting GBA.
FIG. 5D: GlcChol (pmol/mg protein) in RAW 267 cells incubated with 10 uM U18666A for 1 day and in subsequent absence and presence of 1 mM β-methylcyclodextrin (β-mCD) reducing intralysosomal cholesterol.

type 1 GD patients = experiment: Plasma GlcChol in treated type 1 GD patients; format: in vivo, human; conditions: plasma specimens of type 1 GD patients
Description: FIG. 6C: Reduction in plasma GlcChol following Eliglustat treatment.
GlcChol levels in plasma of untreated symptomatic type 1 GD patients was determined as well as in NPC patients, carriers and healthy controls. […] The abnormalities are more pronounced when plasma GlcChol is related to Chol (FIG. 6B).
For quantitative analysis of GlcChol in samples of plasma, we developed a LC-MS/MS method using the MRM mode of the transitions mentioned above. Firstly, GlcChol was extracted from plasma from a healthy individual according the method of Bligh and Dyer (28) with a few modifications. 20 μL of plasma was pipetted in an Eppendorf tube (2 mL) and 20 μL of an internal standard solution, containing 0.1 pmol/μL of ^13C6-β-GlcChol in methanol, was added, followed by addition of 280 μL methanol and 150 μL of chloroform. After brief mixing, the sample was left at room temperature for 30 min, mixed occasionally and centrifuged for 10 min at 15700×g to spin down precipitated protein. The supernatant was transferred to an Eppendorf tube and 150 μL chloroform and 250 μL water were added to induce separation of phases. After centrifugation (5 min at 15700×g) the lower, hydrophobic phase was transferred to a clean Eppendorf tube and the upper phase was washed. by addition of 300 μL of chloroform. Lower phases were pooled and taken to dryness at 35° C. under a nitrogen stream. […]

type 1 GD mice = experiment: Treatment of mice with induced Gaucher disease with GCS inhibitor; plasma GlcCer and GlcChol; format: in vivo; conditions: treated with GCS inhibitor
Description: FIG. 2E: Plasma GlcChol (nM) in normal, type 1 GD mice untreated and treated with GENZ 112638.
As shown in FIG. 2A and FIG. 2B, the GlcChol concentration was markedly lower in tissues of GBA2-deficient animals, especially in thymus. In contrast, in the GBA-deficient LIMP-2 KO mice no reduction in GlcChol, but rather a small increase in levels was observed (FIG. 2A, 2B). An increase in GlcChol was also observed in liver of mice with an induced GBA deficiency in the white blood cell lineage (FIG. 2C). Efficient correction of GBA deficiency by gene therapy led to a concomitant reduction of GlcChol (FIG. 2C).
The following mice were used for investigation: GD1 mice in which GBA-deficiency was induced (31, 32); mice with spontaneous Niemann Pick Type C (33) and Npc1−/− mice (34); LIMP2−/− mice (35), and GBA2 −/− mice (22). Animals were sacrificed and tissue were immediately frozen and stored at −80° C.
For quantitative analysis of GlcChol in samples of plasma, we developed a LC-MS/MS method using the MRM mode of the transitions mentioned above. Firstly, GlcChol was extracted from plasma from a healthy individual according the method of Bligh and Dyer (28) with a few modifications. […]

## OC[C@@H]1[C@@H](O)[C@H](O)[C@@H](O)CN1CCCCCOCC12CC3CC(CC(C3)C1)C2 [AMP-DNM, N-(5-adamantane-1-yl-methoxy-pentyl)-deoxynojirimycin]
COS7 cells
  increased cellular GlcChol level in cells with overexpressed GCS: the elevation in GlcChol was prevented
COS7 cells; COS7 cells, low nanomolar inhibitor, 2 days
  cellular GlcChol: reduced cellular GlcChol

## CCN(CC)CCO[C@H]1CC[C@@]2(C)C(=CC[C@@H]3[C@@H]2CC[C@]2(C)C(=O)CC[C@@H]32)C1 [U18666A]
RAW 267 cells; RAW 267 cells, 1 day
  GlcChol in cells on induction of lysosomal cholesterol accumulation: rapid increase

## CCCCCCCC(=O)N[C@H](CN1CCCC1)[C@H](O)c1ccc2c(c1)OCCO2 [Eliglustat]
Type 1 GD patients
  plasma GlcChol following treatment: prominent reduction

## O[C@H]1[C@H](O)[C@@H](O)[C@@H]2O[C@@H]2[C@@H]1O (racemic) [CBE, Conduritol B epoxide]
COS7 cells
  increased cellular GlcChol level in cells with overexpressed GCS: did hardly diminish
RAW 267 cells
  increase of GlcChol in U18666A exposed cells: prevented completely

## CCCCN1C[C@H](O)[C@@H](O)[C@H](O)[C@H]1CO [Zavesca]
Type 1 GD patients
  plasma GlcChol following treatment: not

## β-methylcyclodextrin [B-methyl-cyclodextrin]
RAW 267 cells
  increase of GlcChol in U18666A exposed cells: prevented

## CCCCCCCC(=O)N[C@H](CN1CCCC1)[C@H](O)c1ccc2c(c1)OCCO2 [GENZ 112638]
Type 1 GD mice
  elevated plasma GlcChol: minor, not statistically significant, reduction
  plasma GlcCer: partial reduction
